Where a SMILES comes first, the peptide text is derived from it. [ ]: non-standard residue; d: D form. Nle = CCCC[C@H](N)C(=O)O
Experiments:
VA-13 cells = assay: Western blot of p27 in SV40-transformed VA-13 fibroblasts; type: cell-based, human; details: 25 μM, 12 hours
Method: (§1) Cell Culture, Cell Extract Preparation, and Western Blot Assay. Human leukemia Jurkat T and prostate cancer LNCaP cells were cultured in RPMI 1640 medium supplemented with 10% fetal calf serum, 100 units/ml of penicillin, and 100 μg/ml streptomycin. Human immortalized, non-transformed NK cells (YT cell line) (38) were cultured in RPMI 1640 supplemented with 1 mM MEM sodium pyruvate solution, 0.1 mM MEM non-essential amino acids solution, 10% fetal calf serum. 100 units/ml penicillin, and 100 μg/ml streptomycin. Normal (WI-38) and simian virus 40 (SV40)-transformed (VA-13) human fibroblasts were grown in Dulbecco's modified Eagle's medium supplemented with 10% fetal calf serum, 100 units/ml of penicillin and 100 μg/ml of streptomycin. All cells were maintained at 37° C. in a humidified incubator with an atmosphere of 5% CO2. A whole cell extract was prepared in accordance with An et al. (An, B. et al. Cell Death Differ, 1998, 5:1062-75). Briefly, cells were harvested, washed with PBS twice, and homogenized in a lysis buffer [50 mM Tris-HCl (pH 8.0), 5 mM EDTA, 150 mM NaCl, 0.5% NP-40, 0.5 mM phenylmethylsulfonyl fluoride, and 0.5 mM dithiothreitol] for 30 min at 4° C. Afterwards, lysates were centrifuged at 12,000×g for 15 min at 4° C., and the supernatants were collected as whole cell extracts. Equal amounts of protein extract (60 μg) were resolved by SDS-polyacrylamide gel electrophoresis and transferred to a nitrocellulose membrane using a Semi-Dry Transfer system (BIO-RAD, Hercules, Calif.). Jurkat T, LNCaP, or DU-145 cells were treated with various concentrations of synthetic or natural tea polyphenols for indicted hours. The enhanced chemiluminescence (ECL) Western blot analysis was then performed using specific antibodies to the proteins of interest (p^27kip, IκB-α, PARP, Bax or actin). The ratio of p27 or IκB-α to the corresponding actin was determined by scanning intensities of the protein bands.
Normal WI-38 and SV40-transformed VA-13 cell lines were treated with 25 μM of (−)-EGCG, (−)-EGCG-amide, (+)-EGCG, (+)-EGCG-amide, or GTP-1 for either 12 hours or 36 hours.

LNCaP cells [1] = assay: Soft agar colony formation assay; type: cell-based, human; details: 50 μM, 14 day-incubation
Method: Soft Agar Assay. The soft agar assay was performed according to Smith et al. (Smith, D. M. et al. Mol Med, 2002, 8:382-392) with a few modifications. In brief, in a six-well plate, a bottom feeder layer (0.6% agar) was prepared with DMEM media containing 10% fetal bovine serum, 100 units/ml penicillin, and 100 μg/ml streptomycin. A top layer (0.3% agar) was prepared with DMEM and the same media as described above but containing 2×10^4 prostate cancer LNCaP cells and indicated analogs or DMSO as a control. Plates were incubated at 37° C. in 5% CO2 in a humidified incubator for two weeks. MTT (1 mg/ml) was added to each well and incubated overnight to allow complete formation of purple formazan crystals. The plates were then scanned and photographed, and the number of colonies was quantified by QUANTITY ONE v.4.0.3 software (Bio-Rad, Hercules, Calif.).
The […] effects of several GTP analogs were investigated with a soft agar assay that measures the transforming activity of human tumor cells. LNCaP cells were plated in soft agar (see Materials and Methods) along with 50 μM of GTP-1, -2, -3, (−)-EGCG (as a positive control; Smith, D. M. et al. Mol Med, 2002, 8:382-392, 2002), or the solvent (as a negative control), followed by a 14 day-incubation to allow for colony formation (FIGS. 12A and 12B).
In a second experiment, LNCaP cells were plated in soft agar along with 10 μM of each indicated GTP or solvent (H2O), followed by a 14 day-incubation to allow for colony formation (FIG. 21A). […] Colonies were quantified with an automated counter and presented as mean values from triplicate independent experiments. Error bars denote standard deviations.

LNCaP cells [2] = assay: Western blot of proteasome target proteins in LNCaP cells; type: cell-based, human; details: 50 μM, 3 to 12 hours
Method: as §1
To investigate whether (−)-EGCG-amide and (+)-EGCG-amide inhibit intact tumor cell proteasome activity, human prostate cancer LNCaP cells were treated with 25 μM of (−)- or (+)-EGCG-amide for up to 9 hours, followed by measurement of p27, IκB-α and Bax, three well-known proteasome target proteins (Pagano, M. et al. Science, 1995, 269:682-685; An, B. et al. Cell Death Differ, 1998, 5:1062-75; Sun, J. et al. Cancer Res, 2001, 61:1280-1284; Palombella, V. J. et al. Cell, 1994, 78:773-785; Thompson, J. E. et al. Cell, 1995, 80:573-582; Perkins, N. D. Trends Biochem Sci, 2000, 25:434-440; Chang, Y. C. et al. Cell Growth Differ, 1998, 9:79-84; Li, B. and Dou, Q. P. Proc Natl Acad Sci USA, 2000, 97:3850-3855; Nam, S. et al. Cancer Epidemiol Biomarkers Prey, 2001, 10:1083-1088). In this experiment (−)-EGCG and (+)-EGCG were used as positive controls.
Having determined that the synthetic GTP-1 to −5 analogs are able to inhibit the proteasomal chymotrypsin-like activity in vitro (FIG. 8), these compounds were investigated for their potency in inhibiting intact tumor cellular proteasome activity. To do so, human prostate cancer LNCaP cells were treated with one of these compounds for the indicated hours, followed by measuring levels of proteasome target proteins, p27, IκB-α, and Bax, and polyubiquitinated proteins.

purified 20S proteasome [3] = target: T1, purified 20S proteasome (UniProt G1T4Q9); assay: Inhibition of chymotrypsin-like activity of purified 20S proteasome (source not stated); type: biochemical; details: chymotrypsin-like activity of purified 20S proteasome
T1 construct: IC50; other: chymotrypsin-like activity of purified 20S proteasome
Method: (§2) Inhibition of purified 20S proteasome activity by natural or synthetic GTPs. Purified prokaryotic (0.5 μg) or eukaryotic (0.02 μg) 20S proteasome was incubated with 20 μM fluorogenic peptide substrate, Suc-Leu-Leu-Val-Tyr-AMC for 30 min at 37° C. in […] of assay buffer (50 mM Tris-HCl, pH 7.5), with or without a natural or synthetic tea polyphenol. After incubation, production of hydrolyzed 7-amido-4-methyl-coumarin (AMC) groups was measured using a multi-well plate VERSAFLUOR Fluorometer with an excitation filter of 380 nm and an emission filter of 460 nm (BIO-RAD), and a multi-well plate reader Wallac 1420 VICTORTM^2 with an excitation filter of 355 nm and an emission filter of 460 nm (EG&G WALLAC).

[4] = target: T2, 20S eukaryotic proteasome (Oryctolagus cuniculus, UniProt G1T4Q9); assay: Inhibition of chymotrypsin-like activity of purified eukaryotic 20S proteasome (Suc-Leu-Leu-Val-Tyr-AMC); type: biochemical, rabbit
T2 construct: purchased BOSTON BIOCHEM (Cambridge, Mass.)
T2 sequence (G1T4Q9 1-263): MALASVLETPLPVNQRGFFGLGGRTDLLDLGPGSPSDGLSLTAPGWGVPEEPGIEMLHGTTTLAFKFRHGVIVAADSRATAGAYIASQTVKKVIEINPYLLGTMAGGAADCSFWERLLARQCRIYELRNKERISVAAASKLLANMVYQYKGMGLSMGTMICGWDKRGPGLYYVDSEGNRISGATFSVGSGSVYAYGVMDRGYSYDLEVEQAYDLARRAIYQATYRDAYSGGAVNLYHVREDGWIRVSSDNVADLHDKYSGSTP
Method: Materials. Highly purified tea polyphenols (−)-EGCG (>95%), (−)-GCG (>98%), (−)-ECG (>98%), (−)-CG (>98%), fetal calf serum, propidium iodide, 3-[4,5-dimethylthiazol-2-yl]-2,5-diphenyltetrazolium bromide (MTT), RNase A, and DMSO were purchased from Sigma (St. Louis, Mo.). (+)-EGCG, benzyl-protected-(+)-EGCG, (+)-GCG, (−)-EGCG-amide, and (+)-EGCG-amide were prepared by enantioselective synthesis (see below). Purified 20S eukaryotic proteasome from rabbit was purchased from BOSTON BIOCHEM (Cambridge, Mass.). Purified 20S prokaryotic proteasome (Methanosarcina thermophile, Recombinant, E. coli) was purchased from CALBIOCHEM (La Jolla, Calif.). Fluorogenic peptide substrates Suc-Leu-Leu-Val-Tyr-AMC (for the proteasomal chymotrypsin-like activity) was obtained from Calbiochem (La Jolla, Calif.). RPMI 1640 medium, Dulbecco's modified Eagle's medium, MEM non-essential amino acids solution, MEM-sodium pyruvate solution, penicillin, and streptomycin were from INVITROGEN (Carlsbad, Calif.). Monoclonal antibody to p27^Kip was purchased from PHARMINGEN (San Diego, Calif.); polyclonal antibodies to IκB-α, Bax and actin, and monoclonal antibody to ubiquitin were from SANTA CRUZ Biotechnology Inc. (Santa Cruz, Calif.).
as §2
Purified prokaryotic (0.5 μg) or eukaryotic (0.02 μg) 20S proteasome was incubated with 20 μM fluorogenic peptide substrate, Suc-Leu-Leu-Val-Tyr-AMC for 30 minutes at 37° C. in 100 μl of assay buffer ([…] Tris-HCl, pH 7.5), with or without a natural or synthetic tea polyphenol. After incubation, production of hydrolyzed AMC groups was measured using a multi-well plate VERSAFLUOR Fluorometer with an excitation filter of 380 nm and an emission filter of 460 nm.
(−)-EGCG at 1 μM was incubated with eukaryotic 20S proteasome (0.02 μg) and suc-LLVY-AMC (20 μM) for the times indicated in FIG. 7. The chymotrypsin activity was measured and graphed in FIG. 7. Values are means from 4 independent experiments, and error bars represent standard deviations.
In the second experiment (−)-EGCG at 1 μM was pre-incubated with (SDS-pre) or without 0.01% SDS (no SDS) for 1 hour, followed by addition of eukaryotic 20S proteasome (0.02 μg) and suc-LLVY-AMC (20 μM). “SDS-post” represents the same treatment as “no SDS” except 0.01% SDS was added 1 hour after addition of the proteasome, (−)-EGCG and the substrate. AMC liberation was measured by fluorescence at each indicated time point and the percentage of chymotrypsin activity was determined. Values are means from 4 independent experiments, and error bars represent standard deviations.

purified 20S proteasome [5] = target: purified 20S proteasome (UniProt Q9P992); assay: Inhibition of chymotrypsin-like activity of purified 20S proteasome (source not stated); type: biochemical; parameters: other: 1 μM; other: 10 μM
Chain of purified 20S proteasome (UniProt Q9P992) (Q9P992 whole entry): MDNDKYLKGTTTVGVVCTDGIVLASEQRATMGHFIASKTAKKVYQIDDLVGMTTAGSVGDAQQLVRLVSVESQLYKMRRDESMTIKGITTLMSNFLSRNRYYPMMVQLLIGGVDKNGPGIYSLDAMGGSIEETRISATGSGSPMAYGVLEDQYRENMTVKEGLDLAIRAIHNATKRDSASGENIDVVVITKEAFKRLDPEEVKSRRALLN
Method: as §2

Compound | colony formation (LNCaP transformation capability) (LNCaP cells [1]) | levels of polyubiquitinated proteins (LNCaP cells [2]) | levels of proteasome target proteins (p27, IκB-α) (LNCaP cells [2]) | IC50 (purified 20S proteasome [3]) [nM] | further results
O=C(O[C@H]1CCCC[C@H]1OC(=O)c1cc(O)c(O)c(O)c1)c1cc(O)c(O)c(O)c1 [GTP-1] | completely blocked LNCaP transformation capability | caused accumulation of polyubiquitinated proteins | increased levels of p27, IκB-α, and Bax proteins at as early as 3 hours | 1900 | levels of p27 protein (VA-13 cells): significantly increased levels of p27 protein
O=C(N[C@H]1CCCC[C@@H]1NC(=O)c1cc(O)c(O)c(O)c1)c1cc(O)c(O)c(O)c1 [GTP-3] | completely blocked LNCaP transformation capability | greatly increased levels of p27, IκB-α, and ubiquitinated proteins | greatly increased levels of p27, IκB-α, and ubiquitinated proteins | 1500 | levels of Bax protein (LNCaP cells [2]): transiently increased levels of Bax protein
O=c1c(-c2ccc(O)cc2)coc2cc(O)cc(O)c12 [genistein] |  |  |  |  | IC50 ([4]; chymotrypsin-like activity of purified 20S proteasome): 26000 nM
O=C(O[C@@H]1Cc2c(O)cc(O)cc2O[C@@H]1c1ccc(O)c(O)c1)c1cc(O)c(O)c(O)c1 [(−)-ECG] |  |  |  |  | IC50 ([4]; chymotrypsin-like activity, rabbit 20S proteasome): 710 nM
O=C(N[C@H]1CCCC[C@H]1NC(=O)c1cc(O)c(O)c(O)c1)c1cc(O)c(O)c(O)c1 [GTP-2] | completely blocked LNCaP transformation capability |  |  | 2500 | 
CCCC[C@@H](C=O)NC(=O)[C@H](CC(C)C)NC(=O)[C@H](CC(C)C)NC(C)=O [LLnL, reference compound] (Ac-Leu-Leu-[Nle]-aldehyde) |  |  |  |  | inhibition of proteasomal activity (purified 20S proteasome [5]; 1 μM): 20%; inhibition of proteasomal activity (purified 20S proteasome [5]; 10 μM): 70%
